Results on 2 compounds are retold here after patent US10583162B2, “Compositions useful in the prevention and/or treatment of osteoarticular inflammation and pain and cartilage damage” (Indena S.P.A., priority 2016, dated 2020).

Structures are written as SMILES.

Series [1] deals with patients suffering from joint disease of the knee with constant pain. In words: Analgesic activity on analogue pain scale 0 to 10 (Example 6). The class given is in vivo, Humans. Conditions: second day. The text has this: 40 patients suffering from joint disease of the knee with constant pain were randomised and treated with two tablets a day, one in the morning and one in the evening, of the composition of example 4, or a placebo (consisting of the carrier only), or the ingredients of the composition of example 1 added individually to the placebo formulation in amounts equal to those present in the composition of example 4.
Efficacy was scored on an international analogue pain scale with scores from 0 to 10, 10 points indicating maximum pain and 0 the disappearance of pain. The effect was evaluated on the second day after administration of the tablet, in the morning 60 and 120 minutes after treatment.

Series [2] deals with patients with osteoarthritis, mainly located in the knee. In words: Blinded study vs piroxicam and placebo, analgesic effect on WOMAC scale (Example 5). Type of series: in vivo, Humans. An excerpt: The analgesic activity of a composition according to the invention comprising Vitis vinifera extract complexed with phospholipids, lipophilic extract of Zingiber officinale, lipophilic extract of Zanthoxylum piperitum and an unsaponifiable fraction of Olea europaea was compared with the activity of piroxicam and a placebo. In a blinded study conducted on 180 patients with osteoarthritis, mainly located in the knee, the composition of example 1 was compared with piroxicam and a placebo by conducting a three-month treatment after randomisation, and check-ups on the joint function for six months after discontinuance of the treatment. At the beginning, the analgesic effect, measured with the Western Ontario and McMaster University Osteoarthritis (WOMAC) scale, was evaluated after 7 days' treatment with two capsules/day of the composition of example 1 vs. two […] capsules of piroxicam or placebo. After the first 7 days, the treatment continued for three months, the analgesic effect being measured once a month.

Turning to `CC(=O)Oc1cccc2c1C(=O)c1c(OC(C)=O)cc(C(=O)O)cc1C2=O` [Diacerein, diacerein], the “Pain (scores) at time 60 min.” value in series [1] (60 minutes after treatment) amounted to 8.2 ± 0.9. In series [1] (120 minutes after treatment), the “Pain (scores) at time 120 min.” value turned out to be 7.9 ± 0.8. Further, the “Pain (scores) at time 0” value in series [1] (time 0 (before the morning tablet)) was 9.1 ± 1.5.

For `CN1C(C(=O)Nc2ccccn2)=C(O)c2ccccc2S1(=O)=O` [piroxicam], the “result (analgesic effect, WOMAC scale)” value in series [2] (4th month, after discontinuance of the treatment) is reported as −41%+/−38; in series [2] (5th month, after discontinuance of the treatment), −24%+/−23; in series [2] (during the third month's treatment, two capsules/day), −72%+/−31.4. Besides, in series [2] (double-blind trial, after discontinuance), the “efficacy maintained after discontinuance of the treatment” value is “needed to continue the treatment”. Further, the tolerability result in series [2] (three-month treatment) is on record as “had to be discontinued due to evident side effects”. Moreover, the “analgesic effect (comparison of the two treated groups)” value in series [2] (three-month treatment, WOMAC) was “comparable analgesic effect”.
